Measurements reported in patent publication US8343988B2, “Inhibitors of histone deacetylase” (Janssen Pharmaceutica, N.V, priority 2002, dated 2013).
≈ marks a conversion by molar mass, not a printed value. Read-outs that look alike come from different tables or passages of the source.

Columns and labels:
[1] = not given; remark: listed apart in the source
[2] = target: histone deacetylase (HeLa nuclear extracts); assay: In vitro assay for inhibition of histone deacetylase; format: biochemical; conditions: [3H]acetylated histone H4 peptide substrate, 30 min
Experimental: The in vitro assay for inhibition of histone deacetylase (see example C.1) measures the inhibition of HDAC enzymatic activity obtained with the compounds of formula (I).
HeLa nuclear extracts (supplier: Biomol) were incubated at 60 μg/ml with 2×10^−8 M of radiolabeled peptide substrate. As a substrate for measuring HDAC activity a synthetic peptide, i.e. the amino acids 14-21 of histone H4, was used. The substrate is biotinylated at the NH2-terminal part with a 6-aminohexanoic acid spacer, and is protected at the COOH-terminal part by an amide group and specifically [^3H]acetylated at lysine 16. The substrate, biotin-(6-aminohexanoic)Gly-Ala-([^3H]-acetyl-Lys-Arg-His-Arg-Lys-Val-NH2), was added in a buffer containing 25 mM Hepes, 1 M sucrose, 0.1 mg/ml BSA and 0.01% Triton X-100 at pH 7.4. After 30 min the deacetylation reaction was terminated by the addition of HCl and acetic acid. (final concentration 0.035 mM and 3.8 mM respectively). After stopping the reaction, the free ^3H-acetate was extracted with ethylacetate. After mixing and centrifugation, the radioactivity in an aliquot of the upper (organic) phase was counted in a β-counter.
For each experiment, controls (containing HeLa nuclear extract and DMSO without compound), a blank incubation (containing DMSO but no HeLa nuclear extract or compound) and samples (containing compound dissolved in DMSO and HeLa nuclear extract) were run in parallel. […] The control sample represented 100% of substrate deactylation. For each sample the radioactivity was expressed as a percentage of the mean value of the controls. […] Herein the effects of test compounds are expressed as pIC50 (the negative log value of the IC50-value).

[3] = system: A2780 ovarian carcinoma cells; assay: Antiproliferative activity on A2780 cells (MTT); format: cell-based; conditions: Homo sapiens, 96 h, four days of incubation, read-out: Cellular activity pIC50 (converted)
Experimental: Cellular activity of the compounds of formula (I) was determined on A2780 tumour cells using a […] assay for cell toxicity or survival (Mosmann Tim, Journal of Immunological Methods 65: 55-63, 1983)(see example C.2).
All compounds tested were dissolved in DMSO and further dilutions were made in culture medium. Final DMSO concentrations never exceeded 0.1% (v/v) in cell proliferation assays. Controls contained A2780 cells and DMSO without compound and blanks contained DMSO but no cells. MTT was dissolved at 5 mg/ml in PBS. A glycine buffer comprised of 0.1 M glycine and 0.1 M NaCl buffered to pH 10.5 with NaOH (1 N) was prepared (all reagents were from Merck).
The human A2780 ovarian carcinoma cells (a kind gift from Dr. T. C. Hamilton [Fox Chase Cancer Centre, Pennsylvania, USA]) were cultured in RPMI 1640 medium supplemented with 2 mM L-glutamine, 50 μg/ml gentamicin and 10% fetal calf serum. Cells were routinely kept as monolayer cultures at 37° C. in a humidified 5% CO2 atmosphere. Cells were passaged once a week using a trypsin/EDTA solution at a split ratio of 1:40. All media and supplements were obtained from Life Technologies. Cells were free of mycoplasma contamination as determined using the Gen-Probe Mycoplasma Tissue Culture kit (supplier: BioMérieux).
Cells were seeded in NUNC™ 96-well culture plates (Supplier: Life Technologies) and allowed to adhere to the plastic overnight. Densities used for plating were 1500 cells per well in a total volume of 200 μl medium. After cell adhesion to the plates, medium was changed and drugs and/or solvents were added to a final volume of 200 μl. Following four days of incubation, medium was replaced by 200 μl fresh medium and cell density and viability was assessed using an MTT-based assay. To each well, 25 μl MTT solution was added and the cells were further incubated for 2 hours at 37° C. The medium was then carefully aspirated and the blue MTT-formazan product was solubilized by addition of 25 μl glycine buffer followed by 100 μl of DMSO. […] Within an experiment, the results for each experimental condition are the mean of 3 replicate wells. For initial screening purposes, compounds were tested at a single fixed concentration of 10^−6 M. For active compounds, the experiments were repeated to establish full concentration-response curves. For each experiment, controls (containing no drug) and a blank incubation (containing no cells or drugs) were run in parallel. The blank value was subtracted from all control and sample values. For each sample, the mean value for cell growth (in absorbance units) was expressed as a percentage of the mean value for cell growth of the control. […] Herein the effects of test compounds are expressed as pIC50 (the negative log value of the IC50-value).

[4] = Kinetic solubility in aqueous media; format: physicochemical; conditions: aqueous buffer, kinetic from dmso stock; phosphate citrate buffer pH 7.4, turbidity by nephelometer; read-out: Solubility Score
Experimental: Kinetic solubility in aqueous media measures the ability of a compound to stay in aqueous solution upon dilution (see example C.3).
DMSO-stock solutions are diluted with a single aqueous buffer solvent in 3 consecutive steps. For every dilution turbidity is measured with a nephelometer.
In the first dilution step, 10 μl of a concentrated stock-solution of the active compound, solubilized in DMSO (5 mM), was added to 100 μl phosphate citrate buffer pH 7.4 and mixed. In the second dilution step, an aliquot (20 μl) of the first dilution step was further dispensed in 100 μl phosphate citrate buffer pH 7.4 and mixed. Finally, in the third dilution step, a sample (20 μl) of the second dilution step was further diluted in 100 μl phosphate citrate buffer pH 7.4 and mixed. All dilutions were performed in 96-well plates. Immediately after the last dilution step the turbidity of the three consecutive dilution steps were measured with a nephelometer. Dilution was done in triplicate for each compound to exclude occasional errors. Based on the turbidity measurements a ranking is performed into 3 classes. Compounds with high solubility obtained a score of 3 and for this compounds the first dilution is clear. Compounds with medium solubility obtained a score of 2. For these compounds the first dilution is unclear and the second dilution is clear. […] The solubility of 6 compounds was measured.

## CCC(C)n1nc(C)n(-c2ccc(N3CCCN(c4ccc(C(=O)NO)cc4)CC3)cc2)c1=O (stereo not drawn) (hydrate or solvate) [Co. No. 1]
other
  melting point: 182 to 184 °C

## O=C(NO)c1cnc(N2CCN(Cc3ccc(-c4ccc(CN5CCOCC5)cc4)o3)CC2)nc1 (hydrate or solvate) [Co. No. 9]
other
  melting point: 140 °C

## COc1cc(N)c(Cl)cc1C(=O)NC1CCN(CCCOc2ccc(F)cc2)CC1OC (stereo not drawn) [Cisapride]
[1]; human, 15 min, 5 μM
  % metabolism: 45%

## CCC(C)n1nc(C)n(-c2ccc(N3CCCN(c4ccc(C(=O)NO)cc4)CC3)cc2)c1=O (stereo not drawn) [Co. No. 1]
[2]
  Enzyme activity pIC50: 5.121
[3]
  IC50: 15000 nM
[4]
  solubility: > 454 µM

## O=C(NO)c1ccc(N2CCN(Cc3ccccc3)CC2)cc1 [Co. No. 2]
other
  melting point: 196 °C
[2]
  Enzyme activity pIC50: 6.377
[3]
  IC50: 9120 nM
[4]
  solubility: > 454 µM

## O=C(NO)c1cnc(N2CCN(C3CCN(S(=O)(=O)c4ccc5ccccc5c4)CC3)CC2)nc1 [Co. No. 3]
other
  melting point: 210 °C
[2]
  Enzyme activity pIC50: 7.28
[3]
  IC50: 964 nM
[4]
  solubility: < 75.8 µM

## O=C(NO)c1cnc(N2CCC(N3CCN(S(=O)(=O)c4ccc5ccccc5c4)CC3)CC2)nc1 [Co. No. 4]
other
  melting point: 230 °C
[2]
  Enzyme activity pIC50: 7.306
[3]
  IC50: 658 nM
[4]
  solubility: > 454 µM

## O=C(NO)c1cnc(N2CCN(Cc3ccc(-c4ccc(CO)cc4)o3)CC2)nc1 [Co. No. 5]
other
  melting point: 219 °C
[2]
  Enzyme activity pIC50: 8.035
[3]
  IC50: 153 nM
[4]
  solubility: > 454 µM

## O=C(NO)c1cnc(N2CCN(Cc3ccc4ccccc4c3)CC2)nc1 [Co. No. 6]
other
  melting point: > 260 °C
[2]
  Enzyme activity pIC50: 8.148
[3]
  IC50: 59.3 nM
[4]
  solubility: > 454 µM

## O=C(NO)c1cnc(N2CCN(CCc3ccc4ccccc4c3)CC2)nc1 [Co. No. 7]
other
  melting point: 209 °C
[2]
  Enzyme activity pIC50: 7.952
[3]
  IC50: 444 nM
[4]
  solubility: > 454 µM

## COc1cc2c(=O)n(CC3CCN(c4ncc(C(=O)NO)cn4)CC3)c(C)nc2c(OC)c1OC [Co. No. 8]
[2]
  Enzyme activity pIC50: 7.365
[3]
  IC50: 372 nM

## O=C(NO)c1cnc(N2CCN(Cc3ccc(-c4ccc(CN5CCOCC5)cc4)o3)CC2)nc1 [Co. No. 9]
[2]
  Enzyme activity pIC50: 7.889
[3]
  IC50: 97.9 nM
[4]
  solubility: > 454 µM

## O=C(NO)c1cnc(N2CCC(Cn3c(-c4ccccc4)nc4ccccc4c3=O)CC2)nc1 [Co. No. 10]
[2]
  Enzyme activity pIC50: 7.427
[3]
  IC50: 658 nM

## O=C(NO)c1ccc(N2CCN(c3cccc(Cl)c3)CC2)c([N+](=O)[O-])c1 [compound 11]
[2]
  Enzyme activity pIC50: <5

## O=C(NO)c1ccc(N2CCN(CCCC(c3ccc(F)cc3)c3ccc(F)cc3)CC2)c([N+](=O)[O-])c1 [compound 12]
[2]
  Enzyme activity pIC50: >5

## O=C(NO)c1cc([N+](=O)[O-])ccc1N1CCN(c2ccccc2Cl)CC1 [compound 13]
[2]
  Enzyme activity pIC50: <5

## O=C(NO)c1cc([N+](=O)[O-])ccc1N1CCC(Cc2ccccc2)CC1 [compound 14]
[2]
  Enzyme activity pIC50: <5

## COc1ccccc1N1CCN(c2ccc(C(=O)NO)cc2[N+](=O)[O-])CC1 [compound 15]
[2]
  Enzyme activity pIC50: >5

## O=C(NO)c1ccc(N2CCN(C3CCCCC3)CC2)c([N+](=O)[O-])c1 [compound 16]
[2]
  Enzyme activity pIC50: 5.698

## O=C(NO)c1ccc(N2CCN(c3ccc(Cl)c(Cl)c3)CC2)c([N+](=O)[O-])c1 [compound 17]
[2]
  Enzyme activity pIC50: >5

## O=C(NO)c1ccc(N2CCN(c3ccccn3)CC2)c([N+](=O)[O-])c1 [compound 18]
[2]
  Enzyme activity pIC50: >5

## O=C(NO)c1ccc(N2CCN(c3cccc(C(F)(F)F)c3)CC2)c([N+](=O)[O-])c1 [compound 19]
[2]
  Enzyme activity pIC50: >5

## O=C(NO)c1ccc(N2CCN(c3ccc(Cl)cc3)CC2)c([N+](=O)[O-])c1 [compound 20]
[2]
  Enzyme activity pIC50: <5

## O=C(NO)c1ccc(N2CCN(c3ncccn3)CC2)c([N+](=O)[O-])c1 [compound 21]
[2]
  Enzyme activity pIC50: 5

## O=C(NO)c1ccc(N2CCN(Cc3ccc4c(c3)OCO4)CC2)c([N+](=O)[O-])c1 [compound 22]
[2]
  Enzyme activity pIC50: >5

## O=C(NO)c1ccc(N2CCN(c3ccccc3F)CC2)c([N+](=O)[O-])c1 [compound 23]
[2]
  Enzyme activity pIC50: >5

## O=C(NO)c1ccc(N2CCN(Cc3ccccc3)CC2)c([N+](=O)[O-])c1 [compound 24]
[2]
  Enzyme activity pIC50: <5

## O=C(NO)c1ccc(N2CCN(c3ccc(C(F)(F)F)cn3)CC2)c([N+](=O)[O-])c1 [compound 25]
[2]
  Enzyme activity pIC50: 5

## O=C(NO)c1ccc(N2CCN(c3ccc(C(F)(F)F)cc3)CC2)c([N+](=O)[O-])c1 [compound 26]
[2]
  Enzyme activity pIC50: >5

## O=C(NO)c1ccc(N2CCC(Cc3ccccc3)CC2)c([N+](=O)[O-])c1 [compound 27]
[2]
  Enzyme activity pIC50: <5

## O=C(NO)c1ccc(N2CCC(n3c(=O)[nH]c4ccccc43)CC2)c([N+](=O)[O-])c1 [compound 28]
[2]
  Enzyme activity pIC50: >5

## O=C(NO)c1cccc(CN2CCN(c3cccc4ccccc34)CC2)c1 [compound 49]
[2]
  Enzyme activity pIC50: <5
[4]
  solubility: 75.8 to 454 µM (≈ 27.4 to 164 µg/mL)

## O=C(NO)c1ccc(CN2CCN(c3cccc4ccccc34)CC2)cc1 [compound 50]
[2]
  Enzyme activity pIC50: 5.206
[4]
  solubility: 75.8 to 454 µM (≈ 27.4 to 164 µg/mL)

## Cc1nc2ccccc2c(=O)n1CC1CCN(c2ncc(C(=O)NO)cn2)CC1 [compound 51]
[2]
  Enzyme activity pIC50: 7.561
[3]
  IC50: 1180 nM

## Cc1ccc2nc(-c3cc4ccccc4o3)n(CC3CCN(c4ncc(C(=O)NO)cn4)CC3)c(=O)c2c1 [compound 52]
[2]
  Enzyme activity pIC50: 7.235
[3]
  IC50: 1170 nM

## O=C(NO)c1cnc(N2CCC(Cn3c(-c4cccnc4Oc4ccccc4)nc4cccc(F)c4c3=O)CC2)nc1 [compound 53]
[2]
  Enzyme activity pIC50: 7.295

## O=C(NO)c1cnc(N2CCC(Cn3c(C(c4ccccc4)C4CCCC4)nc4cccc(F)c4c3=O)CC2)nc1 (stereo not drawn) [compound 54]
[2]
  Enzyme activity pIC50: 6.176

## CCCO [propanol]
[1]; 15 min incubation with active microsomes, compound 5 μM
  % metabolism: 25%
